Data reported in patent US11713470B2, “Targeted gene therapies for pain and other neuro-related disorders” (University of Pittsburgh—Of the Commonwealth System of …, priority 2017, dated 2023).
“Also recorded” adds a separate entry of the source.

Tests used:
Type in all cases: in vivo, mouse
[1] = tested on: mice lacking PSAM4; experiment: Mechanical and heat sensitivity at baseline and after CFA or sural-SNI in wildtype C57Bl/6 mice lacking PSAM4; details: 0.1 mpk i.p.
Method: (§1) Mechanical and heat hypersensitivity was tested in adult wildtype male and female C57Bl/6 mice (not injected with mCCK-PSAM4 virus) before and after intraperitoneal injection of (i.p) varenicline (0.1 milligram per kilogram (mpk) (FIG. 13). We also tested these parameters before and 2-5 days after induction of the complete Freund's adjuvant (CFA)-model of inflammatory pain and 7 days after induction of the sural version of the spared nerve injury (SNI) model of neuropathic pain (FIG. 13). Sensitivity to mechanical stimuli was tested by measuring the paw withdrawal threshold to von Frey filaments (PWT) and the paw withdrawal response to a cotton swab (percentage of response) as described previously (Peirs, C. et al. Dorsal Horn Circuits for Persistent Mechanical Pain. Neuron 87, 797-812 (2015)). Heat sensitivity was tested by measuring the withdrawal latency to a radiant heat source using the Hargreaves apparatus (PWL) as described previously (Peirs, C. et al. Dorsal Horn Circuits for Persistent Mechanical Pain. Neuron 87, 797-812 (2015)).

[2] = biological target: T1, PSAM4 in dorsal horn CCK+ neurons (Homo sapiens, UniProt P23415+P36544, L131G/Q139L/Y217F); experiment: Sural-SNI-induced mechanical allodynia in mice expressing mCCK-PSAM4 in the dorsal horn; details: 0.3 mpk i.p., 7 days after sural-SNI
T1 sequence (P36544+P23415 fused P36544:L131G/P36544:Q139L/P36544:Y217F): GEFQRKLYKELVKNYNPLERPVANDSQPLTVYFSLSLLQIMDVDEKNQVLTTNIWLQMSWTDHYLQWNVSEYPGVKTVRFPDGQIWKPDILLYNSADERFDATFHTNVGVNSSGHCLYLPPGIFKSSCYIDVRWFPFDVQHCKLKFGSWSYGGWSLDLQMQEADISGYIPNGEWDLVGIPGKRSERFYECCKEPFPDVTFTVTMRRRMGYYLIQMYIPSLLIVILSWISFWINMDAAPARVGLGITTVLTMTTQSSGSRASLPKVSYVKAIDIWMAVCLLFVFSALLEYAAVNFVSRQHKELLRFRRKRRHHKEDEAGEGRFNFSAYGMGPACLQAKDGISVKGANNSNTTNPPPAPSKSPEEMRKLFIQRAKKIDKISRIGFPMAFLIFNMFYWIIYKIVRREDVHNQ
Method: (§2) The mouse cholecystokinin (CCK) promoter with an added chimeric intron to drive expression of α7^L131G, Q139L, Y217F GlyR (PSAM4) was packaged into AAV2/8 and injected into the dorsal horn of 3-week-old wildtype C57Bl/6 male and female mice. Injection of AAV into the dorsal horn was performed as described previously (Peirs, C. et al. Dorsal Horn Circuits for Persistent Mechanical Pain. Neuron 87, 797-812 (2015)). See FIG. 11 for a schematic of the plasmid used to produce these rAAV particles. Briefly, a 2.5 kb fragment of the mouse CCK promoter was subcloned upstream of the PSAM4 gene with the chimeric intron (135 bp) located in between. […]

[3] = biological target: T1, PSAM4 in dorsal horn CCK+ neurons; experiment: Baseline mechanical and heat sensitivity in mice injected with AAV8 mCCK-PSAM4 virus; details: 0.3 mpk i.p., 2 weeks after AAV8 mCCK-PSAM4, 30-60 minutes after drug
Method: The mouse cholecystokinin (CCK) promoter with an added chimeric intron to drive expression of α7^L131G, Q139L, Y217F GlyR (PSAM4) was packaged into AAV2/8 and injected into the dorsal horn of 3-week-old wildtype C57Bl/6 male and female mice. Injection of AAV into the dorsal horn was performed as described previously (Peirs, C. et al. Dorsal Horn Circuits for Persistent Mechanical Pain. Neuron 87, 797-812 (2015)). See FIG. 11 for a schematic of the plasmid used to produce these rAAV particles. Briefly, a 2.5 kb fragment of the mouse CCK promoter was subcloned upstream of the PSAM4 gene with the chimeric intron (135 bp) located in between.
as §1
Mice were injected unilaterally in the dorsal horn with AAV8 mCCK-PSAM4 virus and tested two weeks later. […] The ipsilateral plantar hindpaw of the mice was injected with CFA and PWTs and response frequencies tested 3 days later in the absence and presence of varenicline (0.3 mpk, i.p.).

[4] = biological target: T1, PSAM4 in dorsal horn CCK+ neurons; experiment: CFA-induced mechanical allodynia in mice expressing mCCK-PSAM4 in the dorsal horn; details: 0.3 mpk i.p., 3 days after CFA
Method: as §2

[5] = uninjured mice without PSAM4, 30-60 minutes after injection

Question: Which “heat hypersensitivity after CFA” value ([1]; mice without PSAM4, 2 days after CFA) does the source give for c1cnc2cc3c(cc2n1)[C@@H]1CNC[C@H]3C1 [varenicline] here?
Answer: no effect

Question: And the “mechanical hypersensitivity after CFA” value ([1]; mice without PSAM4, 3 days after CFA)?
Answer: no effect

Question: And the “mechanical or heat hypersensitivity after sural-SNI” value ([1]; mice without PSAM4, 7 days after sural-SNI)?
Answer: no effect

Question: And the “baseline PWL (withdrawal latency, Hargreaves)” value [1, 5]?
Answer: no effect

Question: And the “baseline PWT (paw withdrawal threshold to von Frey filaments)” value [1, 5]?
Answer: no effect

Question: What about the “baseline response frequency to cotton swab” value [1, 5] of the same compound?
Answer: no effect

Question: What about the “PWT to von Frey filaments after sural-SNI” value [2] of the same compound?
Answer: markedly reversed

Question: What about the “baseline PWL” value [3] of the same compound?
Answer: no effect; also recorded: did not alter

Question: What about the “baseline PWT” value [3] of the same compound?
Answer: no effect; also recorded: did not alter

Question: And the “baseline percentage response (response frequency to cotton swab)” value [3]?
Answer: no effect; also recorded: did not alter

Question: What about the “PWT to von Frey filaments after CFA” value [4] of the same compound?
Answer: markedly reversed

Question: And the “response frequency to cotton swab after CFA” value [4]?
Answer: markedly reversed
